Reference: patent US9182397B2, “Immunoassay for detecting antibiotics” (DSM IP ASSETS B.V., priority 2011, dated 2015)

Columns and labels:
[1] = test system: Penicillin binding protein purified from Bacillus stearothermophilus; assay: Detection of Penicillin G after different shaking steps (Example 28); set-up: key: 0: no intensity; 1: low intensity; 2: medium intensity; 3: high intensity
Description: (§1) A nitrocellulose HF90 membrane (Millipore; length 25 mm) was used as a detection region. The membrane was glued to a polystyrene laminated card (thickness 0.254 mm) 8 mm from the proximal end of the card. Next, the detection zone and control zone were applied onto the nitrocellulose membrane. The detection zone was applied by dispensing 1 mg/ml of a 7ACA-spacer-BSA conjugate in 20 mM KPO4-buffer (pH 7.5) with a Biodot Dispense workstation XYZ 3050 with frontline at 0.2 μl/cm. The control zone was applied by dispensing 0.15 mg/ml of an anti-IgY antibody in 20 mM KPO4-buffer (pH 7.5) comprising 0.675 mg/ml BSA, 5% w/v saccharose and 20 mM NaCl with a Biodot Dispense workstation XYZ 3050 with frontline at 0.8 μl/cm. After drying of the zones, the nitrocellulose membrane was blocked by spraying a solution comprising 10 mM Tris buffer (pH 8) comprising 2% w/v BSA and 0.05% w/v Tween-20 using a Biodot Dispense workstation XYZ 3050 with airjet 3×. The solution was sprayed onto the membrane at a distance of 2 mm below the detection zone. Thereafter, the sample receiving region (VF2 membrane from Millipore; length 1 cm) was glued at the proximal end of the card overlapping 2 mm with the nitrocellulose membrane. The absorbing region (10038 membrane from Millipore; length 20 mm) was glued at the distal end of the card with an overlap of 2 mm on the nitrocellulose membrane. The obtained cards were dried at 37° C. in a dry atmosphere (0% relative humidity). The card was cut in strips of 5.2 mm width and kept at a dry atmosphere (0% relative humidity).
(§2) Streptavidin-coated gold particles were synthesized by reacting colloidal gold (diameter 40 nm; 1 OD/ml) with 10 μg/ml streptavidin. Next, the obtained solution was concentrated by tangential flow filtration, washed and stored in a Tris buffer (pH 8) including NaCN. Penicillin binding protein purified from Bacillus stearothermophilus was biotinylated (1:4) with D-biotinyl-epsilon-aminocaproic acid-N-hydroxysuccinimide ester. Next, the penicillin binding protein-gold conjugate was synthesized by reacting 1.5 μg biotinylated penicillin binding protein with 1 OD streptavidin-coated gold particles for 1 hour, followed by centrifugation at 10,000×g for 5 minutes and resuspension of the obtained pellet in 45 mM bicarbonate buffer comprising 0.1% w/v Triton X-100 (pH 9.6).
(§3) Thereafter, 140-200 mOD of the penicillin binding protein-gold conjugate and 5-20 mOD of the IgY-gold conjugate was solubilized in 100 μl buffer (80 mM Tris buffer comprising 0.01% w/v Triton-X-100, 0.4% w/v BSA, 5% v/v glycerin and 2% w/v saccharose (pH 8.5)) and 0.75 μl of the solution was dispensed per tube and dried for 12 hours at 40° C. The obtained tubes were sealed.
(§4) 150 μl of spiked milk was added per tube containing the dried conjugates. The concentration of penicillin G in the added milk varied from 0 to 4 ng/g (tube 1: 0 ng/g; […]; tube 2: 2 ng/g; tube 3: 3 ng/g; and tube 4: 4 ng/g). The obtained liquid composition was incubated for 2 minutes at 64° C. in an incubator. A test device was put into the tube and incubated for 3 minutes at 64° C. in the incubator. The result was read by eye.
The test was done essentially as described in Example 3, with the proviso that different shaking steps were applied. […]

[2] = test system: Penicillin binding protein purified from Bacillus stearothermophilus; assay: Detection of Penicillin G after storage of the test device at −20° C. or 30° C. (Example 26); set-up: key: 0: no intensity; 1: low intensity; 2: medium intensity; 3: high intensity
Description: as §1, §2, §3, §4
The test devices were produced as described above in Examples 1 and 2 and stored at different temperatures (−20° C. and 30° C.). At different time periods after production, the test device was used to detect penicillin G. The test was done essentially as described in Example 3.

[3] = test system: Penicillin binding protein purified from Bacillus stearothermophilus; assay: Lateral flow test strip, penicillin G in spiked milk (Example 3); set-up: key to Intensity of the detection zone: 0: no intensity; 1: low intensity; 2: medium intensity; 3: high intensity
Description: as §1, §2
IgY-coated gold particles were synthesized by reacting colloidal gold (diameter 40 nm; 1 OD/ml with 10 μg/ml IgY. Next, the obtained solution was centrifuged at 7,500×g for 10 minutes and the obtained pellet was resuspended in a Tris buffer (pH 8), washed by another round of centrifugation and resuspension of the obtained pellet in a Tris buffer (pH 8) and stored in a Tris-buffer (pH 8) including NaCN.
as §3, §4

## CC1(C)S[C@@H]2[C@H](NC(=O)Cc3ccccc3)C(=O)N2[C@H]1C(=O)O [Penicillin G]
[1]; Pen G 3 ppb, Method a, no shaking steps (0 ppb gave 2, control zone 1)
  Intensity of detection zone: 1
[1]; Pen G 3 ppb, Method b, one shaking step (10 seconds) after incubation
  Intensity of detection zone: 2
[1]; Pen G 3 ppb, Method c, one shaking step (10 seconds) before incubation
  Intensity of detection zone: 2
[1]; Pen G 3 ppb, Method d, shaking 5 seconds before and 10 seconds after incubation
  Intensity of detection zone: 2
[1]; Pen G 3 ppb, Method e, shaking 10 seconds before and 10 seconds after incubation
  Intensity of detection zone: 2
[1]; Pen G 4 ppb, Method a, no shaking steps (0 ppb gave 2, control zone 1)
  Intensity of detection zone: 1
[1]; Pen G 4 ppb, Method b, one shaking step (10 seconds) after incubation
  Intensity of detection zone: 1
[1]; Pen G 4 ppb, Method c, one shaking step (10 seconds) before incubation
  Intensity of detection zone: 1
[1]; Pen G 4 ppb, Method d, shaking 5 seconds before and 10 seconds after incubation
  Intensity of detection zone: 1
[1]; Pen G 4 ppb, Method e, shaking 10 seconds before and 10 seconds after incubation
  Intensity of detection zone: 1
[2]; Pen G 3 ppb, test device stored 0 days at 30° C.
  Intensity of detection zone: 2
[2]; Pen G 3 ppb, test device stored 0 days at −20° C.
  Intensity of detection zone: 2
[2]; Pen G 3 ppb, test device stored 3 days at 30° C.
  Intensity of detection zone: 2
[2]; Pen G 3 ppb, test device stored 3 days at −20° C.
  Intensity of detection zone: 2
[2]; Pen G 3 ppb, test device stored 7 days at 30° C.
  Intensity of detection zone: 2
[2]; Pen G 3 ppb, test device stored 7 days at −20° C.
  Intensity of detection zone: 2
[2]; Pen G 3 ppb, test device stored 28 days at 30° C.
  Intensity of detection zone: 1
[2]; Pen G 3 ppb, test device stored 28 days at −20° C.
  Intensity of detection zone: 2
[2]; Pen G 4 ppb, test device stored 0 days at 30° C.
  Intensity of detection zone: 1
[2]; Pen G 4 ppb, test device stored 0 days at −20° C.
  Intensity of detection zone: 1
[2]; Pen G 4 ppb, test device stored 3 days at 30° C.
  Intensity of detection zone: 1
[2]; Pen G 4 ppb, test device stored 3 days at −20° C.
  Intensity of detection zone: 1
[2]; Pen G 4 ppb, test device stored 7 days at 30° C.
  Intensity of detection zone: 1
[2]; Pen G 4 ppb, test device stored 7 days at −20° C.
  Intensity of detection zone: 1
[2]; Pen G 4 ppb, test device stored 28 days at 30° C.
  Intensity of detection zone: 0
[2]; Pen G 4 ppb, test device stored 28 days at −20° C.
  Intensity of detection zone: 1
[3]; Penicillin G 1 ng/g in milk
  Intensity of the detection zone compared with the intensity of the control zone: clearly higher
[3]; Penicillin G 1 ng/g in spiked milk, read by eye
  Intensity of the detection zone: 3
[3]; Penicillin G 2 ng/g in milk
  Signal intensity of the detection zone compared with the signal intensity of the control zone: similar
[3]; Penicillin G 2 ng/g in spiked milk, read by eye
  Intensity of the detection zone: 2
[3]; Penicillin G 3 ng/g in milk
  Signal intensity of the detection zone compared with the signal intensity of the control zone: similar
[3]; Penicillin G 3 ng/g in spiked milk, read by eye
  Intensity of the detection zone: 2
[3]; Penicillin G 4 ng/g in milk
  Intensity of the detection zone compared with the intensity of the control zone: significantly lower
[3]; Penicillin G 4 ng/g in spiked milk, read by eye
  Intensity of the detection zone: 1
[3]; spiked milk, read by eye
  Concentration in the milk at which the signal of the detection zone clearly was less intense: ≥ 2 ng/g
